We go through 25 compounds from patent US11384060B2, “Amide compounds and use thereof” (ALPHALA CO., LTD., priority 2017, dated 2022).

Read-outs that look alike come from different tables or passages of the source. Where only a bound is given, the exact number is not on record here.

Broadly, the IC50 is the concentration that inhibits the measured activity by half. A higher IC50 goes with a need for much substance.

One assay addresses T1, glucagon receptor (GCGR) (Homo sapiens, UniProt P47871).
T1 construct: expressed in transfected cells; host or cells: CHO-K1 cells overexpressing GCGR (membrane fractions)
Kind of assay: I125-glucagon binding assay (competition, GCGR membrane fractions). The gist of the method:
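Competition of 0.0625 nM (final) I^125-glucagon for 30 min at 25° C, after 5 min compound preincubation, using 7.5 μg/well GCGR-overexpressing CHO-K1 membranes in 50 mM Tris pH 7.4, 0.5% BSA. Filtration onto PEI-coated GF/B, micro-beta counting, and non-linear regression gave IC50.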

The target of assay [1] is T2, glucagon receptor (GCGR) overexpressed CHO-K1 cells or human primary hepatocytes (Homo sapiens, UniProt P47871).
T2 construct: expressed in transfected cells; host or cells: GCGR overexpressed CHO-K1 cells or human primary hepatocytes (endogenous receptor)
Briefly: Glucagon cAMP inhibition assay (Cisbio cAMP Dynamic 2 HTRF). It is filed as cell-based. Put shortly: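 HTRF read-out of glucagon-induced cAMP, with IC50 from non-linear regression. Cells (GCGR CHO-K1 or human primary hepatocytes) in HBSS/0.1% BSA/800 nM IBMX took compound dilutions for 30 min (final DMSO 1%), then EC50-level glucagon for 30 min at room temperature, then a 60 min lysis/detection step.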

Where [2] appears, read: competition with I125-glucagon 0.0625 nM, membrane fractions of GCGR overexpressed CHO-K1 cells.
[3] abbreviates: inhibition of glucagon (EC50 concentration) induced cAMP production.

T2 sequence (P47871 26-477): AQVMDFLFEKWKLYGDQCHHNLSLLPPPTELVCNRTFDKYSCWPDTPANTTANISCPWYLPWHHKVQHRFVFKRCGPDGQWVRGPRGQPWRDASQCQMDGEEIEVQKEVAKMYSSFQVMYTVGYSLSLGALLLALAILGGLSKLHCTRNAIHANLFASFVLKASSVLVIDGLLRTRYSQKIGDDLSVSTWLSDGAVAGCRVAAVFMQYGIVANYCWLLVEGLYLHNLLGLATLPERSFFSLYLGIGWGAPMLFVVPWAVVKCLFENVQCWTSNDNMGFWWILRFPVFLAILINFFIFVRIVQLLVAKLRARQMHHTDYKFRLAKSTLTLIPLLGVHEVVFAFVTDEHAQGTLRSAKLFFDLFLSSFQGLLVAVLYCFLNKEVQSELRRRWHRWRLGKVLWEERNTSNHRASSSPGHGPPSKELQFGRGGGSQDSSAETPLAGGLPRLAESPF
T1 sequence (P47871 26-477): as above

Compound `CCC(C)[C@@H](Cc1noc(-c2ccc(C(C)(C)C)cc2)n1)Nc1ccc(C(=O)NCCC(=O)O)cc1` (stereo partly drawn) [Compound 21-2, 3-(4-(((2R)-1-(5-(4-(tert-butyl)phenyl)-1,2,4-oxadiazol-3-yl)-3-methylpentan-2-yl)amino)benzamido)propanoic Acid] gave an IC50 on glucagon receptor (GCGR) (setting [2]) of 0.637 µM. Further, the “IC50 cAMP” value in assay [1] (setting [3]) turned out to be 1.242 µM.

The compound `CC(C)[C@@H](Cc1noc(-c2ccc(C(C)(C)C)cc2)n1)Nc1ccc(C(=O)NCCC(=O)O)cc1` [Compound 21-3, (R)-3-(4-((1-(5-(4-(tert-butyl)phenyl)-1,2,4-oxadiazol-3-yl)-3-methylbutan-2-yl)amino)benzamido)propanoic Acid] gave an IC50 at glucagon receptor (GCGR) (setting [2]) of 1.13 µM. Moreover, the “IC50 cAMP” value in assay [1] (setting [3]) came out at 5.436 µM.

For `CC[C@H](C)[C@@H](COc1nnc(-c2ccc(C(F)(F)F)cc2F)o1)Nc1ccc(C(=O)NCCC(=O)O)cc1` [Compound 22-1, 3-(4-(((2S,3S)-1-((5-(2-fluoro-4-(trifluoromethyl)phenyl)-1,3,4-oxadiazol-2-yl)oxy)-3-methylpentan-2-yl)amino)benzamido)propanoic Acid], the IC50 on glucagon receptor (GCGR) is 0.062 µM. Also, the “IC50 cAMP” value in assay [1] is >30 µM.

In turn, `CCCC[C@@H](COc1nnc(-c2ccc(OC(F)(F)F)cc2)o1)Nc1ccc(C(=O)NCCC(=O)O)cc1` [Compound 22-2, (S)-3-(4-((1-((5-(4-(trifluoromethoxy)phenyl)-1,3,4-oxadiazol-2-yl)oxy)hexan-2-yl)amino)benzamido)propanoic Acid] registered an IC50 on glucagon receptor (GCGR) of 1.43 µM. Moreover, in assay [1], the “IC50 cAMP” value was >30 µM.

With `CCCC[C@@H](COc1nnc(-c2ccc(C(F)(F)F)cc2F)o1)Nc1ccc(C(=O)NCCC(=O)O)cc1` [Compound 22-3, (S)-3-(4-((1-((5-(2-fluoro-4-(trifluoromethyl)phenyl)-1,3,4-oxadiazol-2-yl)oxy)hexan-2-yl)amino)benzamido)propanoic Acid], the IC50 at glucagon receptor (GCGR) came out at 13.6 µM. Also, the “IC50 cAMP” value in assay [1] was >30 µM.

For the compound `CCCC[C@@H](COc1nnc(-c2cc3ccccc3o2)o1)Nc1ccc(C(=O)NCCC(=O)O)cc1` [Compound 22-4, (S)-3-(4-((1-((5-(benzofuran-2-yl)-1,3,4-oxadiazol-2-yl)oxy)hexan-2-yl)amino)benzamido)propanoic Acid], the IC50 on glucagon receptor (GCGR) is > 30 µM. The “IC50 cAMP” value in assay [1] was >30 µM.

As to `CCCC[C@@H](COc1nnc(-c2ccc(C(F)(F)F)cc2)o1)Nc1ccc(C(=O)NCCC(=O)O)cc1` [Compound 22-5, (S)-3-(4-((1-((5-(4-(trifluoromethyl)phenyl)-1,3,4-oxadiazol-2-yl)oxy)hexan-2-yl)amino)benzamido)propanoic Acid], at glucagon receptor (GCGR), the IC50 is > 30 µM. Moreover, the “IC50 cAMP” value in assay [1] is >30 µM.

Take `CCCC[C@@H](COc1nnc(-c2ccc(Cl)cc2Cl)o1)Nc1ccc(C(=O)NCCC(=O)O)cc1` [Compound 22-6, (S)-3-(4-((1-((5-(2,4-dichlorophenyl)-1,3,4-oxadiazol-2-yl)oxy)hexan-2-yl)amino)benzamido)propanoic Acid]: on glucagon receptor (GCGR), the IC50 was > 30 µM. Also, the “IC50 cAMP” value in assay [1] was >30 µM.

On to `CC[C@H](C)[C@@H](COc1nnc(-c2cc3ccccc3o2)o1)Nc1ccc(C(=O)NCCC(=O)O)cc1` [Compound 22-7, 3-(4-(((2S,3 S)-1-((5-(benzofuran-2-yl)-1,3,4-oxadiazol-2-yl)oxy)-3-methylpentan-2-yl)amino)benzamido)propanoic Acid], for which, on glucagon receptor (GCGR), the IC50 is > 30 µM. The “IC50 cAMP” value in assay [1] is >30 µM.

As to `CC[C@H](C)[C@@H](COc1nnc(-c2ccc(C(F)(F)F)cc2)o1)Nc1ccc(C(=O)NCCC(=O)O)cc1` [Compound 22-10, 3-(4-(((2S,3S)-3-methyl-1-((5-(4-(trifluoromethyl)phenyl)-1,3,4-oxadiazol-2-yl)oxy)pentan-2-yl)amino)benzamido)propanoic Acid], on glucagon receptor (GCGR), the concentration for half-maximal inhibition (IC50) is > 30 µM. In assay [1], the “IC50 cAMP” value is >30 µM.

On to `CC[C@H](C)[C@@H](COc1nnc(-c2ccc(Cl)cc2Cl)o1)Nc1ccc(C(=O)NCCC(=O)O)cc1` [Compound 22-11, 3-(4-(((2S,3S)-1-((5-(2,4-dichlorophenyl)-1,3,4-oxadiazol-2-yl)oxy)-3-methylpentan-2-yl)amino)benzamido)propanoic Acid], for which the IC50 on glucagon receptor (GCGR) is > 30 µM. For the same compound, the “IC50 cAMP” value in assay [1] was >30 µM.

For `CC(C)[C@@H](COc1nnc(-c2cc3ccccc3o2)o1)Nc1ccc(C(=O)NCCC(=O)O)cc1` [Compound 22-12, (S)-3-(4-((1-((5-(benzofuran-2-yl)-1,3,4-oxadiazol-2-yl)oxy)-3-methylbutan-2-yl)amino)benzamido)propanoic Acid], the half-maximal inhibitory concentration (IC50) at glucagon receptor (GCGR) was > 30 µM. Also, the “IC50 cAMP” value in assay [1] was >30 µM.

For the compound `CC(C)[C@@H](COc1nnc(-c2ccc(C(F)(F)F)cc2)o1)Nc1ccc(C(=O)NCCC(=O)O)cc1` [Compound 22-13, (S)-3-(4-((3-methyl-1-((5-(4-(trifluoromethyl)phenyl)-1,3,4-oxadiazol-2-yl)oxy)butan-2-yl)amino)benzamido)propanoic Acid], at glucagon receptor (GCGR), the IC50 is > 30 µM. Also, in assay [1], the “IC50 cAMP” value is >30 µM.

As for `CC(C)[C@@H](COc1nnc(-c2ccc(Cl)cc2Cl)o1)Nc1ccc(C(=O)NCCC(=O)O)cc1` [Compound 22-14, (S)-3-(4-((1-((5-(2,4-dichlorophenyl)-1,3,4-oxadiazol-2-yl)oxy)-3-methylbutan-2-yl)amino)benzamido)propanoic Acid], on glucagon receptor (GCGR), the IC50 is > 30 µM. Also, the “IC50 cAMP” value in assay [1] was >30 µM.

As for `CC(C)[C@@H](COc1nnc(-c2ccc(OC(F)(F)F)cc2)o1)Nc1ccc(C(=O)NCCC(=O)O)cc1` [Compound 22-15, (S)-3-(4-((3-methyl-1-((5-(4-(trifluoromethoxy)phenyl)-1,3,4-oxadiazol-2-yl)oxy)butan-2-yl)amino)benzamido)propanoic Acid], on glucagon receptor (GCGR), the IC50 was > 30 µM. The “IC50 cAMP” value in assay [1] is >30 µM.

Take `CC(C)[C@@H](COc1nnc(-c2ccc(C(C)(C)C)cc2)o1)Nc1ccc(C(=O)NCCC(=O)O)cc1` [Compound 22-16, (S)-3-(4-((1-((5-(4-(tert-butyl)phenyl)-1,3,4-oxadiazol-2-yl)oxy)-3-methylbutan-2-yl)amino)benzamido)propanoic Acid]: the IC50 at glucagon receptor (GCGR) is > 30 µM. In assay [1], the “IC50 cAMP” value was >30 µM.

In the case of `CC(C)[C@@H](COc1nnc(-c2ccc(C(F)(F)F)cc2F)o1)Nc1ccc(C(=O)NCCC(=O)O)cc1` [Compound 22-17], the 50% inhibitory concentration (IC50) on glucagon receptor (GCGR) was > 30 µM. Besides, in assay [1], the “IC50 cAMP” value was >30 µM.

For the compound `CCCC[C@@H](COc1nnc(-c2ccc(C(C)(C)C)cc2)o1)Nc1ccc(C(=O)NCCC(=O)O)cc1` [Compound 22-18, (S)-3-(4-((1-((5-(4-(tert-butyl)phenyl)-1,3,4-oxadiazol-2-yl)oxy)hexan-2-yl)amino)benzamido)propanoic Acid], at glucagon receptor (GCGR), the IC50 is > 30 µM. The “IC50 cAMP” value in assay [1] is >30 µM.

As for `CC[C@H](C)[C@@H](COc1nnc(-c2ccc(C(F)(F)F)cc2Cl)o1)Nc1ccc(C(=O)NCCC(=O)O)cc1` [Compound 22-19], the IC50 on glucagon receptor (GCGR) is > 30 µM. Further, the “IC50 cAMP” value in assay [1] was >30 µM.

Take `CC[C@H](C)[C@@H](COc1nnc(-c2ccc(C(F)(F)F)cc2F)o1)Nc1ccc(C(=O)NCCC(=O)OC)cc1` [Compound 22-20, Methyl 3-(4-(((2S,3S)-1-((5-(2-fluoro-4-(trifluoromethyl)phenyl)-1,3,4-oxadiazol-2-yl)oxy)-3-methylpentan-2-yl)amino)benzamido)propanoate]: at glucagon receptor (GCGR), the IC50 is > 30 µM. Further, in assay [1], the “IC50 cAMP” value was >30 µM.

`CC(C)C[C@H](Nc1ccc(C(=O)NCCC(=O)O)cc1)C(=O)Nc1ccc(-c2ccc(Cl)cc2Cl)cc1` [Compound 23-1, (S)-3-(4-((1-((2′,4′-dichloro-[1,1′-biphenyl]-4-yl)amino)-4-methyl-1-oxopentan-2-yl)amino)benzamido)propanoic Acid] showed an IC50 on glucagon receptor (GCGR) of 0.087 µM. Besides, the “IC50 cAMP” value in assay [1] amounted to 3.6 µM.

`O=C(O)CCNC(=O)c1ccc(N[C@@H](Cc2ccccc2)C(=O)Nc2ccc(-c3ccc(Cl)cc3Cl)cc2)cc1` [Compound 23-2, (S)-3-(4-((1-((2′,4′-dichloro-[1,1′-biphenyl]-4-yl)amino)-1-oxo-3-phenylpropan-2-yl)amino)benzamido)propanoic Acid] showed an IC50 at glucagon receptor (GCGR) of 0.462 µM. Also, the “IC50 cAMP” value in assay [1] amounted to 5.2 µM.

The compound `Cc1cc(C)c(-c2ccc(NC(=O)[C@H](Cc3ccccc3)Nc3ccc(C(=O)NCCC(=O)O)cc3)cc2)c(C)c1` [Compound 23-3, (S)-3-(4-((1-oxo-3-phenyl-1-((2′,4′,6′-trimethyl-[1,1′-biphenyl]-4-yl)amino)propan-2-yl)amino)benzamido)propanoic Acid] displayed an IC50 on glucagon receptor (GCGR) of 0.388 µM. Further, the “IC50 cAMP” value in assay [1] was 5.8 µM.

Compound `CC(C)C[C@H](Nc1ccc(C(=O)NCCC(=O)O)cc1)C(=O)Nc1ccc(-c2ccc(C(F)(F)F)cc2)cc1` [Compound 23-4, (S)-3-(4-((4-methyl-1-oxo-1-((4′-(trifluoromethyl)-[1,1′-biphenyl]-4-yl)amino)pentan-2-yl)amino)benzamido)propanoic Acid] displayed an IC50 on glucagon receptor (GCGR) of 0.269 µM. Moreover, the “IC50 cAMP” value in assay [1] is 3.2 µM.

`CC(C)C[C@H](Nc1ccc(C(=O)NCCC(=O)O)cc1)C(=O)Nc1ccc(-c2cc3ccccc3o2)cc1` [Compound 23-5, (S)-3-(4-((1-((4-(benzofuran-2-yl)phenyl)amino)-4-methyl-1-oxopentan-2-yl)amino)benzamido)propanoic Acid] displayed an IC50 on glucagon receptor (GCGR) of 0.08 µM. Besides, in assay [1], the “IC50 cAMP” value is 3.5 µM.
